From patent US11130741B2 (Bioimics AB, priority 2016, dated 2021)
≈ marks a conversion by molar mass, not a printed value. Where two headings read alike, the source gives them in different places.

How the values were obtained:
[1] = tested on: Pseudomonas aeruginosa (ATCC27853); assay: microbe, parasite or virus in culture; assay type: cell-based; conditions: read-out: MIC P. aeruginosa ATCC 27853
[2] = tested on: S. pneumoniae ATCC 49619; assay: MIC, S. pneumoniae ATCC 49619; assay type: cell-based; conditions: Streptococcus pneumoniae, ATCC49619
[3] = tested on: S. aureus MRSA ATCC 33591; assay: MIC, S. aureus MRSA ATCC 33591; assay type: cell-based
[4] = tested on: Enterococcus faecalis (ATCC29212); assay: MIC, broth microdilution (CLSI), Enterococcus faecalis ATCC29212; assay type: cell-based; conditions: read-out: MIC E. faecalis ATCC 29212
[5] = tested on: K. pneumoniae ATCC 43816; assay: MIC, K. pneumoniae ATCC 43816; assay type: cell-based; conditions: Klebsiella pneumoniae, ATCC43816
[6] = tested on: Staphylococcus aureus (ATCC25923); assay: MIC, broth microdilution (CLSI), Staphylococcus aureus ATCC25923
Method: (§1) Initial minimal inhibitory concentration (MIC) tests were made on two bacterial strains: • Escherichia coli (ATCC25922) • Staphylococcus aureus (ATCC25923).
Minimal Inhibitory Concentration (MIC)
(§2) MIC values were determined using the standard broth microdilution procedure based on the guidelines by the Clinical and Laboratory Standards Institute (CLSI). Briefly, the compounds were dissolved in DMSO to 10 mM. They were diluted in cation-adjusted Mueller-Hinton broth (CAMHB) to four times the highest concentration tested. A serial 2-fold dilution in CAMHB was done in microdilution plates. The inoculum of bacterial strain to be tested was prepared by making a suspension of colonies from an 18 to 24 hours old plate in CAMHB. The inoculum was diluted so that, after inoculation, each well contained approximately 5×10^5 CFU/mL. To a volume of 50 μl compound in CAMHB an equal volume of inoculum was added. The tray was sealed in a plastic bag and incubated at 35° C. for 16 to 20 hours. To aid in the detection of growth the dye resazurin was added to a final concentration 0.001% and incubated at room temperature for 1 h. Reduction of resazurin, and therefore bacterial growth, was seen as a change from blue to pink.

[7] = tested on: N. gonorrhoeae 612501; assay: MIC, N. gonorrhoeae 612501; assay type: cell-based; conditions: Neisseria gonorrhoeae
[8] = tested on: H. influenzae ATCC 49247; assay: MIC, H. influenzae ATCC 49247; assay type: cell-based; conditions: Haemophilus influenzae, ATCC49247
[9] = tested on: S. aureus ATCC 29213; assay: MIC, S. aureus ATCC 29213 + 50% HS; assay type: cell-based; conditions: Staphylococcus aureus, ATCC29213
[10] = tested on: Escherichia coli (ATCC25922); assay: MIC, broth microdilution (CLSI), Escherichia coli ATCC25922
Method: as §1
Minimal Inhibitory Concentration (MIC)
as §2

[11] = tested on: E. coli RNase P RNA, M1 RNA; assay: Inhibition of bacterial RNase P activity, IC50 determination (cleavage of pATSerUG by M1 RNA); assay type: biochemical; conditions: NI = No inhibition
[12] = tested on: E. faecium ATCC 700221; assay: MIC, E. faecium ATCC 700221; assay type: cell-based
[13] = tested on: A. baumannii ATCC 17978; assay: MIC, A. baumannii ATCC 17978; assay type: cell-based; conditions: Acinetobacter baumannii, ATCC17978
[14] = tested on: E. coli JW5503; assay: MIC, E. coli JW5503; assay type: cell-based; conditions: Escherichia coli, JW5503, read-out: MIC E. coli JW5503
[15] = tested on: P. aeruginosa NTUH-974 (MDR); assay: MIC, P. aeruginosa NTUH-974 (MDR); assay type: cell-based
[16] = tested on: Staphylococcus aureus subsp. aureus (ATCC29213); assay: MIC, broth microdilution (CLSI), Staphylococcus aureus subsp. aureus ATCC29213; assay type: cell-based
[17] = Staphylococcus aureus; read-out: MIC S. aureus MRSA ATCC 33591
[18] = ATCC25923, read-out: S. aureus ("Clinical") MIC
[19] = ATCC25922, read-out: E. coli MIC, Table 15, NI = No inhibition
[20] = ATCC25922, read-out: MIC E. coli ATCC 25922
[21] = Enterococcus faecium, ATCC700221; read-out: MIC E. faecium ATCC 700221
[22] = Pseudomonas aeruginosa, read-out: MIC P. aeruginosa NTUH-974 (MDR)
[23] = ATCC29213, Table 15, read-out: S. aureus ("wound") (MIC)
[24] = ATCC29213, Table 16, read-out: MIC S. aureus ATCC 29213
[25] = ATCC25922, read-out: MIC E. coli ATCC 25922, Table 16

CN(C)CCCN1c2ccccc2Sc2cc(-c3cc4cc(C#N)ccc4[nH]3)ccc21 [compound 123, 2-(10-(3-(dimethylamino)propyl)-10H-phenothiazin-3-yl)-1H-indole-5-carbonitrile]
MIC [1]: > 128 mg/L
MIC [2]: 8 mg/L (≈ 18.8 µM)
MIC [3, 17]: 8 mg/L (≈ 18.8 µM)
MIC [4]: 2 mg/L (≈ 4.71 µM)
MIC [5]: > 128 mg/L
MIC [6, 18]: 2 mg/L (≈ 4.71 µM)
MIC [7]: 1 mg/L (≈ 2.36 µM)
MIC [8]: 16 mg/L (≈ 37.7 µM)
MIC [9]: 64 mg/L
MIC [10, 19]: > 100 mg/L
MIC [10, 20]: > 128 mg/L
IC50 [11]: > 100 µM
MIC [12, 21]: 2 mg/L (≈ 4.71 µM)
MIC [13]: 64 mg/L (≈ 151 µM)
MIC [14]: 4 mg/L (≈ 9.42 µM)
MIC [15, 22]: > 128 mg/L
MIC [16, 23]: 2 mg/L (≈ 4.71 µM)
MIC [16, 24]: 2 mg/L (≈ 4.71 µM)

NC1CCCC(C(=O)Nc2cc(C(F)(F)F)cc3c2Nc2ccc(-c4cc5ccccc5[nH]4)cc2S3)C1 (stereo not shown) [compound 242, N-(7-(1H-Indol-2-yl)-3-(trifluoromethyl)-10H-phenothiazin-1-yl)-3-aminocyclohexanecarboxamide]
MIC [1]: > 128 mg/L
MIC [2]: 16 mg/L (≈ 30.6 µM)
MIC [3, 17]: 2 mg/L (≈ 3.83 µM)
MIC [6, 18]: 4 mg/L (≈ 7.65 µM)
MIC [7]: 2 mg/L (≈ 3.83 µM)
MIC [8]: 16 mg/L (≈ 30.6 µM)
MIC [9]: 128 mg/L
IC50 [11]: 3 µM
MIC [13]: 16 mg/L (≈ 30.6 µM)
MIC ([15]; Pseudomonas aeruginosa; read-out: MIC P. aeruginosa NTUH-974 (MDR)): 64 mg/L (≈ 122 µM)
MIC [16, 23]: 8 mg/L (≈ 15.3 µM)
MIC [16, 24]: 2 mg/L (≈ 3.83 µM)

NCC(O)CNC(=O)c1cc2c(c([N+](=O)[O-])c1)Nc1ccccc1S2 (stereo not shown) [compound 94, N-(3-amino-2-hydroxypropyl)-1-nitro-10H-phenothiazine-3-carboxamide]
MIC [6, 18]: 64 mg/L (≈ 178 µM)
MIC [10, 19]: > 100 mg/L
IC50 [11]: 202 µM
MIC [16, 23]: 94 mg/L (≈ 261 µM)

CNCCCN1c2ccccc2Sc2cc(-c3cc4ccccc4[nH]3)ccc21 [compound 186, 3-(3-(1H-indol-2-yl)-10H-phenothiazin-10-yl)-N-methylpropan-1-amine]
MIC [1]: > 128 mg/L
MIC [2]: 32 mg/L (≈ 83 µM)
MIC [3, 17]: 8 mg/L (≈ 20.8 µM)
MIC [4]: 4 mg/L (≈ 10.4 µM)
MIC [5]: 128 mg/L (≈ 332 µM)
MIC [6, 18]: 2 mg/L (≈ 5.19 µM)
MIC [7]: 4 mg/L (≈ 10.4 µM)
MIC [8]: 16 mg/L (≈ 41.5 µM)
MIC [9]: 64 mg/L
MIC [10, 19]: 99 mg/L (≈ 257 µM)
MIC [10, 25]: 16 mg/L (≈ 41.5 µM)
IC50 [11]: 30 µM
MIC [12, 21]: 4 mg/L (≈ 10.4 µM)
MIC [13]: 16 mg/L (≈ 41.5 µM)
MIC [14]: 4 mg/L (≈ 10.4 µM)
MIC [15, 22]: > 128 mg/L
MIC [16, 24]: 4 mg/L (≈ 10.4 µM)

CN(C)CCCN1c2ccccc2Sc2cc(-c3cc4ccccc4n3CCN)ccc21 [compound 136, 3-(3-(1-(2-aminoethyl)-1H-indol-2-yl)-10H-phenothiazin-10-yl)-N,N-dimethylpropan-1-amine]
MIC [6, 18]: 7 mg/L (≈ 15.8 µM)
MIC [10, 19]: 7 mg/L (≈ 15.8 µM)
IC50 [11]: 37 µM
MIC [16, 23]: 16 mg/L (≈ 36.1 µM)

NCCCN1c2ccccc2Sc2cc(-c3cc4ccccc4[nH]3)ccc21 [compound 150, 3-(3-(1H-Indol-2-yl)-10H-phenothiazin-10-yl)propan-1-amine]
MIC [1]: > 128 mg/L
MIC [2]: 8 mg/L (≈ 21.5 µM)
MIC [3, 17]: 2 mg/L (≈ 5.38 µM)
MIC [4]: 2 mg/L (≈ 5.38 µM)
MIC [5]: 16 mg/L (≈ 43.1 µM)
MIC [6, 18]: 1 mg/L (≈ 2.69 µM)
MIC [7]: 2 mg/L (≈ 5.38 µM)
MIC [8]: 8 mg/L (≈ 21.5 µM)
MIC [9]: 64 mg/L
MIC [10, 19]: 12 mg/L (≈ 32.3 µM)
MIC [10, 25]: 16 mg/L (≈ 43.1 µM)
IC50 [11]: 14 µM
MIC [12, 21]: 2 mg/L (≈ 5.38 µM)
MIC [13]: 16 mg/L (≈ 43.1 µM)
MIC [14]: 4 mg/L (≈ 10.8 µM)
MIC [15, 22]: > 128 mg/L
MIC [16, 24]: 2 mg/L (≈ 5.38 µM)

O=C(/C=C/c1ccc(F)cc1)Nc1cc(C(F)(F)F)cc2c1Nc1ccccc1S2 [compound 92, E-3-(4-fluorophenyl)-N-(3-(trifluoromethyl)-10H-phenothiazin-1-yl)acrylamide]
MIC [1]: > 128 mg/L
MIC [2]: 8 mg/L (≈ 18.6 µM)
MIC [3, 17]: 2 mg/L (≈ 4.65 µM)
MIC [4]: 2 mg/L (≈ 4.65 µM)
MIC [5]: > 128 mg/L
MIC [6, 18]: 1 mg/L (≈ 2.32 µM)
MIC [7]: 0.25 mg/L (≈ 0.581 µM)
MIC [8]: > 128 mg/L
MIC [9]: 128 mg/L
MIC [10, 19]: > 100 mg/L
MIC [10, 20]: > 128 mg/L
IC50 [11]: > 100 µM
MIC [12, 21]: 0.5 mg/L (≈ 1.16 µM)
MIC [13]: > 128 mg/L
MIC [14]: > 128 mg/L
MIC [15, 22]: > 128 mg/L
MIC [16, 23]: 1 mg/L (≈ 2.32 µM)
MIC [16, 24]: 0.5 mg/L (≈ 1.16 µM)

FC(F)(F)c1cc(NC2CCNCC2)c2c(c1)Sc1ccccc1N2 [compound 141, N-(piperidin-4-yl)-3-(trifluoromethyl)-10H-phenothiazin-1-amine]
MIC [6, 18]: 3 mg/L (≈ 8.21 µM)
MIC [10, 19]: 12 mg/L (≈ 32.8 µM)
IC50 [11]: 12 µM
MIC [16, 23]: 6 mg/L (≈ 16.4 µM)

NCCNC(=O)c1ccc2c(c1)Sc1cc(C(F)(F)F)cc(NC3CCN(CCN)CC3)c1N2 [compound 255, N-(2-aminoethyl)-9-((1-(2-aminoethyl)piperidin-4-yl)amino)-7-(trifluoromethyl)-10H-phenothiazine-3-carboxamide trifluroroacetic acid]
MIC [1]: 128 mg/L (≈ 259 µM)
MIC [2]: 64 mg/L (≈ 129 µM)
MIC ([3]; Staphylococcus aureus, read-out: MIC S. aureus MRSA ATCC 33591): 16 mg/L (≈ 32.4 µM)
MIC [4]: 16 mg/L (≈ 32.4 µM)
MIC [5]: 128 mg/L (≈ 259 µM)
MIC ([6]; ATCC25923, read-out: S. aureus ("Clinical") MIC, Table 15): 2 mg/L (≈ 4.04 µM)
MIC [7]: 16 mg/L (≈ 32.4 µM)
MIC [8]: 64 mg/L (≈ 129 µM)
MIC [9]: 64 mg/L
MIC ([10]; ATCC25922, read-out: E. coli MIC): 39 mg/L (≈ 78.9 µM)
MIC [10, 20]: 64 mg/L (≈ 129 µM)
MIC ([12]; Enterococcus faecium, ATCC700221, read-out: MIC E. faecium ATCC 700221): 32 mg/L (≈ 64.7 µM)
MIC [13]: 128 mg/L (≈ 259 µM)
MIC [14]: 16 mg/L (≈ 32.4 µM)
MIC [15, 22]: 64 mg/L (≈ 129 µM)
MIC [16, 23]: 8 mg/L (≈ 16.2 µM)
MIC [16, 24]: 8 mg/L (≈ 16.2 µM)

NCCCN1c2ccc(-c3cc4ccccc4[nH]3)cc2Sc2cc(N3CCNCC3)ccc21.O=C(O)C(F)(F)F [compound 244, 3-(3-(1H-indol-2-yl)-7-(piperazin-1-yl)-10H-phenothiazin-10-yl)propan-1-amine]
MIC [6, 18]: 9 mg/L
MIC [10, 19]: 36 mg/L
IC50 [11]: 4 µM
MIC [16, 23]: 4 mg/L
